Results reported in ChEMBL document CHEMBL5576090, “Structural Diversification of Pyrazinone Metabolites via Spontaneous Oxa-Michael Addition in Staphylococcus xylosus” (2024).
Residues, ends and D or L forms follow the SMILES beside them. *: point of attachment. Boc = CC(C)(C)OC(=O)*

Experiments:
Type in all cases: functional
Staphylococcus aureus = assay: Antibacterial activity against methicillin-resistant Staphylococcus aureus measured after 12 hrs
Acinetobacter baumannii = assay: Antibacterial activity against Acinetobacter baumannii measured after 12 hrs
Saccharomyces cerevisiae = assay: Antifungal activity against Saccharomyces cerevisiae measured after 24 hrs
Escherichia coli = assay: Antibacterial activity against Escherichia coli measured after 12 hrs
Bacillus subtilis = assay: Antibacterial activity against Bacillus subtilis measured after 12 hrs
[1] = Antimigratory activity against mouse MTV/TM-011 cells assessed as wound closure measured after 24 hrs by optical microscopic analysis relative to control; parameters: concentration or dose not given beside the values
[2] = Antimigratory activity against mouse MTV/TM-011 cells assessed as wound closure at 20 uM measured after 24 hrs by optical microscopic analysis relative to control

Row | Structure (SMILES) | MIC (Staphylococcus aureus) | MIC (Acinetobacter baumannii) | MIC (Saccharomyces cerevisiae) | MIC (Escherichia coli) | MIC (Bacillus subtilis) | Activity [1] | Activity [2]
1 | CC(C)(O)c1ncc(Cc2ccc(O)cc2)[nH]c1=O | > 100 µM | > 100 µM | > 100 µM | > 100 µM | > 100 µM | 65% | –
2 | COC(C)(C)c1ncc(Cc2ccccc2)[nH]c1=O | > 100 µM | > 100 µM | > 100 µM | > 100 µM | > 100 µM | 65% | –
3 | CC(C)c1ncc(Cc2ccccc2)nc1O | > 100 µM | > 100 µM | > 100 µM | > 100 µM | > 100 µM | 72% | –
4 | CC(C)[C@H](NC(=O)OC(C)(C)C)C(=O)N[C@H](C=O)Cc1ccccc1 (Boc-Val-Phe-aldehyde) | > 100 µM | > 100 µM | > 100 µM | > 100 µM | > 100 µM | – | 65%
5 | CC(C)c1ncc(Cc2ccc(O)cc2)[nH]c1=O | > 100 µM | > 100 µM | > 100 µM | > 100 µM | > 100 µM | 65% | –
6 | O=c1[nH]cc(F)c(=O)[nH]1 [FLUOROURACIL] | – | – | – | – | – | 65% | –
7 | CC(C)Cc1cnc(C(C)C)c(=O)[nH]1 | > 100 µM | > 100 µM | > 100 µM | > 100 µM | > 100 µM | 65% | –
8 | CC(C)(O)c1ncc(Cc2ccccc2)[nH]c1=O | > 100 µM | > 100 µM | > 100 µM | > 100 µM | > 100 µM | 70% | –
9 | COC(C)(C)c1ncc(Cc2ccc(O)cc2)[nH]c1=O | > 100 µM | > 100 µM | > 100 µM | > 100 µM | > 100 µM | 65% | –
